In brackets after ≈: the same amount, converted by molar mass. Where two headings read alike, the source gives them in different places.
What was measured:
[1] = molecular target: T1, full-length beta-Catenin (Uniprot ID P35222) (Homo sapiens, UniProt P35222); assay: Fluorescence polarization IC50 (beta-catenin / 5FAM-TCF4 10-53 competition); type: binding
T1 construct: 10 nM full-length beta-Catenin (Uniprot ID P35222)
T1 sequence (P35222 1-781): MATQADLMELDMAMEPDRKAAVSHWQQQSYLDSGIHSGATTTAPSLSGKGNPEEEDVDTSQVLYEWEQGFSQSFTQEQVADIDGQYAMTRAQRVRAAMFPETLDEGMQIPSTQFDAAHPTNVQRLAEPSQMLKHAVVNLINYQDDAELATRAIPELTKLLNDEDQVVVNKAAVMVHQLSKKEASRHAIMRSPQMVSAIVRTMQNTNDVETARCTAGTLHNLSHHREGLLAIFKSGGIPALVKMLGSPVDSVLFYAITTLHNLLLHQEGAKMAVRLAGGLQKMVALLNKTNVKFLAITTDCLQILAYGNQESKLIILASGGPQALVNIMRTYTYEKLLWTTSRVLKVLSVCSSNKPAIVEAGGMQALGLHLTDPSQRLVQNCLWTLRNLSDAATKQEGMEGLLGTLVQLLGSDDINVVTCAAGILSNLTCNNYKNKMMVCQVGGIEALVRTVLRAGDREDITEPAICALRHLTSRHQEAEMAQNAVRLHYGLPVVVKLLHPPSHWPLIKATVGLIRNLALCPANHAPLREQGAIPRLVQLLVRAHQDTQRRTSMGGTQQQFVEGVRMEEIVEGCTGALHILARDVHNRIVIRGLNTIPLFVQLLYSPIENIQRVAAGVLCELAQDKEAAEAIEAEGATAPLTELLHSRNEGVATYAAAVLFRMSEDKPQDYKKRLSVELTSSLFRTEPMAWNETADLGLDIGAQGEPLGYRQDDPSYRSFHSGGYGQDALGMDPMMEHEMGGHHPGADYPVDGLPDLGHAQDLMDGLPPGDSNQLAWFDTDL

CHI Log D procedure = type: physicochemical
Solubility in PBS = type: physicochemical
Outline: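 Steps: ultracentrifuge the peptide PBS solution, inject the supernatant on HPLC, inject a 50 μM peptide DMSO solution as reference, then calculate solubility as area ratio (PBS/DMSO) × 50 uM.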

[2] = FP EC50 (nM), fluorescence polarization, beta-catenin
[3] = fluorescence polarization, beta-catenin, read-out: FP EC50

Row | Solubility (Solubility in PBS) [µM] | IC50 ([1]; read-out: beta-Catenin FP IC50) [nM] | chromatographic logD (CHI Log D procedure; pH 7.4, CHI Log D) | Solubility (Solubility in PBS; Solubility (uM)) [µM] | IC50 [1, 3] [nM] | CHI Log D (CHI Log D procedure; pH 7.4) | SMILES | IC50 [1, 2] [nM] | chromatographic logD (CHI Log D procedure; pH 7.4)
1 | – | 471 | 1.64 | 43 (≈ 84.3 µg/mL) | – | – | CC(=O)N1CCC[C@]12CC=CCCCC1(CCCC=CCCCOC(=O)N3CC[C@@](C(=O)N[C@@H](Cc4ccccc4Cl)C(=O)N[C@@H](Cc4csc5ccccc45)C(=O)N[C@@H](CCC(N)=O)C(N)=O)(C3)NC(=O)[C@H](CC(C)C)NC(=O)[C@H](Cc3ccccc3)NC(=O)[C@H](C)NC(=O)[C@H](C)NC(=O)[C@H](CCC(=O)O)NC(=O)[C@H](CC(=O)O)NC1=O)NC(=O)[C@H](CC(C)(C)C)NC(=O)[C@H](CC(=O)O)NC2=O (stereo partly drawn) [I-1063, Ac-PL3-Asp-Npg-B5-Asp-Glu-Ala-Ala-Phe-Leu-PyrS2-2C1F-BztA-Gln-NH2] | – | –
2 | 29 (≈ 55.2 µg/mL) | 414 | – | – | 414 | 1.967 | CC(=O)N1CCC[C@]12CC=CCCCC1(CCCC=CCCCOC(=O)N3CC[C@@](C(=O)N[C@@H](Cc4ccccc4Cl)C(=O)N[C@@H](Cc4csc5ccccc45)C(=O)N[C@@H](CO)C(N)=O)(C3)NC(=O)[C@H](CC(C)C)NC(=O)[C@H](Cc3ccccc3)NC(=O)[C@H](C)NC(=O)[C@H](C)NC(=O)[C@H](CC(=O)O)NC(=O)[C@H](CC(=O)O)NC1=O)NC(=O)[C@H](CC(C)(C)C)NC(=O)[C@H](CC(=O)O)NC2=O (stereo partly drawn) [I-1064, Ac-PL3-Asp-Npg-B5-Asp-Asp-Ala-Ala-Phe-Leu-PyrS2-2C1F-BztA-Ser-NH2] | – | –
3 | 10 (≈ 19.2 µg/mL) | 789 | – | – | 789 | 2.024 | CC(=O)N1CCC[C@]12CC=CCCCC1(CCCC=CCCCOC(=O)N3CC[C@@](C(=O)N[C@@H](Cc4ccccc4Cl)C(=O)N[C@@H](Cc4csc5ccccc45)C(=O)N[C@@H](CO)C(N)=O)(C3)NC(=O)[C@H](CC(C)C)NC(=O)[C@H](Cc3ccccc3)NC(=O)[C@H](C)NC(=O)[C@H](C)NC(=O)[C@H](CCC(=O)O)NC(=O)[C@H](CC(=O)O)NC1=O)NC(=O)[C@H](CC(C)(C)C)NC(=O)[C@H](CC(=O)O)NC2=O (stereo partly drawn) [I-1066, Ac-PL3-Asp-Npg-B5-Asp-Glu-Ala-Ala-Phe-Leu-PyrS2-2C1F-BztA-Ser-NH2] | – | –
4 | 13 (≈ 24.9 µg/mL) | 950 | – | – | 950 | 2.053 | CC(=O)N1CCC[C@]12CC=CCCCC1(CCCC=CCCCOC(=O)N3CC[C@@](C(=O)N[C@@H](Cc4ccccc4Cl)C(=O)N[C@@H](Cc4csc5ccccc45)C(=O)N[C@H](C(N)=O)[C@@H](C)O)(C3)NC(=O)[C@H](CC(C)C)NC(=O)[C@H](Cc3ccccc3)NC(=O)[C@H](C)NC(=O)[C@H](C)NC(=O)[C@H](CC(=O)O)NC(=O)[C@H](CC(=O)O)NC1=O)NC(=O)[C@H](CC(C)(C)C)NC(=O)[C@H](CC(=O)O)NC2=O (stereo partly drawn) [I-1068, Ac-PL3-Asp-Npg-B5-Asp-Asp-Ala-Ala-Phe-Leu-PyrS2-2C1F-BztA-Thr-NH2] | – | –
5 | 10 (≈ 19.2 µg/mL) | 920 | – | – | 920 | 2.113 | CC(=O)N1CCC[C@]12CC=CCCCC1(CCCC=CCCCOC(=O)N3CC[C@@](C(=O)N[C@@H](Cc4ccccc4Cl)C(=O)N[C@@H](Cc4csc5ccccc45)C(=O)N[C@H](C(N)=O)[C@@H](C)O)(C3)NC(=O)[C@H](CC(C)C)NC(=O)[C@H](Cc3ccccc3)NC(=O)[C@H](C)NC(=O)[C@H](C)NC(=O)[C@H](CC(=O)O)NC(=O)[C@H](CC(=O)O)NC1=O)NC(=O)[C@H](CC(C)(C)C)NC(=O)[C@H](CC(=O)O)NC2=O (stereo partly drawn) [I-1069, Ac-PL3-Asp-Npg-B5-Asp-Asp-Ala-Ala-Phe-Leu-PyrS2-2C1F-BztA-Thr-NH2] | – | –
6 | 10 (≈ 19.3 µg/mL) | 1020 | – | – | 1020 | 2.135 | CC(=O)N1CCC[C@]12CC=CCCCC1(CCCC=CCCCOC(=O)N3CC[C@@](C(=O)N[C@@H](Cc4ccccc4Cl)C(=O)N[C@@H](Cc4csc5ccccc45)C(=O)N[C@H](C(N)=O)[C@@H](C)O)(C3)NC(=O)[C@H](CC(C)C)NC(=O)[C@H](Cc3ccccc3)NC(=O)[C@H](C)NC(=O)[C@H](C)NC(=O)[C@H](CCC(=O)O)NC(=O)[C@H](CC(=O)O)NC1=O)NC(=O)[C@H](CC(C)(C)C)NC(=O)[C@H](CC(=O)O)NC2=O (stereo partly drawn) [I-1070, Ac-PL3-Asp-Npg-B5-Asp-Glu-Ala-Ala-Phe-Leu-PyrS2-2C1F-BztA-Thr-NH2] | – | –
7 | 33 (≈ 63.8 µg/mL) | 1260 | – | – | 1260 | 2.218 | CC(=O)N1CCC[C@]12CC=CCCCC1(CCCC=CCCCOC(=O)N3CC[C@@](C(=O)N[C@@H](Cc4ccccc4Cl)C(=O)N[C@@H](Cc4csc5ccccc45)C(=O)N[C@H](C(N)=O)[C@@H](C)O)(C3)NC(=O)[C@H](CC(C)C)NC(=O)[C@H](Cc3ccccc3)NC(=O)[C@H](C)NC(=O)[C@H](C)NC(=O)[C@H](CCC(=O)O)NC(=O)[C@H](CC(=O)O)NC1=O)NC(=O)[C@H](CC(C)(C)C)NC(=O)[C@H](CC(=O)O)NC2=O (stereo partly drawn) [I-1071, Ac-PL3-Asp-Npg-B5-Asp-Glu-Ala-Ala-Phe-Leu-PyrS2-2C1F-BztA-Thr-NH2] | – | –

The next lines start with the compound.

Row | SMILES | Solubility (Solubility in PBS) [µM] | IC50 ([1]; read-out: beta-Catenin FP IC50) [nM] | chromatographic logD (CHI Log D procedure; pH 7.4, CHI Log D) | Solubility (Solubility in PBS; Solubility (uM)) [µM] | IC50 [1, 3] [nM] | CHI Log D (CHI Log D procedure; pH 7.4) | IC50 [1, 2] [nM] | chromatographic logD (CHI Log D procedure; pH 7.4)
8 | C[C@@H]1NC(=O)[C@H](C)NC(=O)[C@H](CN(CC(=O)O)CC(F)(F)F)NC(=O)[C@H](CC(=O)O)NC(=O)C2(CCCC=CCCCOC(=O)N3CC[C@@](C(=O)N[C@@H](Cc4ccccc4Cl)C(=O)N[C@@H](Cc4csc5ccccc45)C(=O)N[C@@H](CCC(N)=O)C(N)=O)(C3)NC(=O)[C@H]([C@@H](C)O)NC(=O)[C@H](Cc3ccccc3)NC1=O)CCCC=CC[C@]1(CCCN1C(=O)CN=[N+]=[N-])C(=O)N[C@@H](CC(=O)O)C(=O)N[C@@H](CC(C)(C)C)C(=O)N2 (stereo partly drawn) [I-1059, AzAc-PL3-Asp-Npg-B5-Asp-TfeGA-Ala-Ala-Phe-Thr-PyrS2-2C1F-BztA-Gln-NH2] | 42 (≈ 87.6 µg/mL) | – | – | – | – | – | 42 | 2.44
9 | C[C@@H]1NC(=O)[C@H](C)NC(=O)[C@H](CC(=O)O)NC(=O)[C@H](CC(=O)O)NC(=O)C2(CCCC=CCCCOC(=O)N3CC[C@@](C(=O)N[C@@H](Cc4ccccc4Cl)C(=O)N[C@@H](Cc4csc5ccccc45)C(=O)N[C@@H](C(N)=O)[C@H](C)O)(C3)NC(=O)[C@H]([C@@H](C)O)NC(=O)[C@H](Cc3ccccc3)NC1=O)CCCC=CC[C@]1(CCCN1C(=O)CN=[N+]=[N-])C(=O)N[C@@H](CC(=O)O)C(=O)N[C@@H](CC(C)(C)C)C(=O)N2 (stereo partly drawn) [I-1060, AzAc-PL3-Asp-Npg-B5-Asp-Asp-Ala-Ala-Phe-Thr-PyrS2-2C1F-BztA-dThr-NH2] | 10 (≈ 19.5 µg/mL) | – | – | – | – | – | 38 | 2.6
10 | CC(=O)N1CCC[C@]12CC=CCCCC1(CCCC=CCCCOC(=O)N3CC[C@@](C(=O)N[C@@H](Cc4ccccc4)C(=O)N[C@@H](Cc4csc5ccccc45)C(=O)N[C@@H](CCC(N)=O)C(N)=O)(C3)NC(=O)[C@H](CC(C)C)NC(=O)[C@H](Cc3ccccc3)NC(=O)[C@H](C)NC(=O)[C@H](C)NC(=O)[C@H](CCC(=O)O)NC(=O)[C@H](CC(=O)O)NC1=O)NC(=O)[C@H](CC(C)(C)C)NC(=O)[C@H](CC(=O)O)NC2=O (stereo partly drawn) [I-1073, Ac-PL3-Asp-Npg-B5-Asp-Glu-Ala-Ala-Phe-Leu-PyrS2-Phe-BztA-Gln-NH2] | 31 (≈ 59.7 µg/mL) | 409 | – | – | 409 | 1.831 | – | –
11 | CC(=O)N1CCC[C@]12CC=CCCCC1(CCCC=CCCCOC(=O)N3CC[C@@](C(=O)N[C@@H](Cc4ccccc4)C(=O)N[C@@H](Cc4csc5ccccc45)C(=O)N[C@@H](CCC(N)=O)C(N)=O)(C3)NC(=O)[C@H](CC(C)C)NC(=O)[C@H](Cc3ccccc3)NC(=O)[C@H](C)NC(=O)[C@H](C)NC(=O)[C@H](CCC(=O)O)NC(=O)[C@H](CC(=O)O)NC1=O)NC(=O)[C@H](CC(C)(C)C)NC(=O)[C@H](CC(=O)O)NC2=O (stereo partly drawn) [I-1074, Ac-PL3-Asp-Npg-B5-Asp-Glu-Ala-Ala-Phe-Leu-PyrS2-Phe-BztA-Gln-NH2] | 34 (≈ 65.5 µg/mL) | 498 | – | – | 498 | 1.92 | – | –
12 | CC(=O)N1CCC[C@]12CC=CCCCC1(CCCC=CCCCOC(=O)N3CC[C@@](C(=O)N[C@@H](Cc4ccccc4Cl)C(=O)N[C@@H](Cc4csc5ccccc45)C(=O)N[C@@H](CCC(N)=O)C(N)=O)(C3)NC(=O)[C@H](CC(C)C)NC(=O)[C@H](Cc3ccccc3)NC(=O)[C@H](C)NC(=O)[C@H](C)NC(=O)[C@H](CC(=O)O)NC(=O)[C@H](CC(=O)O)NC1=O)NC(=O)[C@H](CC1CCCCC1)NC(=O)[C@H](CC(=O)O)NC2=O (stereo partly drawn) [I-1075, Ac-PL3-Asp-Cha-B5-Asp-Asp-Ala-Ala-Phe-Leu-PyrS2-2C1F-BztA-Gln-NH2] | 17 (≈ 33.5 µg/mL) | 567 | – | – | 567 | 1.971 | – | –

From patent US20240116985A1, “STAPLED PEPTIDES AND METHODS THEREOF” (priority 2020, published 2024)
